“Also recorded” adds a separate entry of the source.
Legend:
[1] = test system: neurogenesis in rat hippocampus; experiment: Detection of neurogenesis in rat hippocampus by BrdU labeling (DAB immunohistochemistry); format: in vivo; settings: under the test conditions of the embodiments, same dose
Excerpt: Example 36: Detection of Neurogenesis in Rat Hippocampus by BrdU (5-Bromo-2-deoxy Uridine, 5-bromodeoxyuridine) Labeling
Experimental animals: 10-week-old SD male rats having a body weight of about 300 g are purchased. The rats are used in experiments one week after being adapted to the environment in an animal room. Experimental groups: control group, drug group. 2-3 rats per group. Experimental reagent: injection oil is used to dissolve a compound to be tested. Rates in the control group are injected with the same dose of dissolving oil.
Test method: intraperitoneal injection is carried out 28 days at the injection dose of 0.5 ml-1 ml each time. Dose: 4 mg/Kg.
1) marker injection: BrdU (dissolved in sterile saline solution at a concentration of 10 mg/mL) solution is injected intraperitoneally into rats. (For rats with different body weights, the injection dose of BrdU is 50 mg·Kg^−1, injection is carried out twice every 2 hour; the intraperitoneal injection 24 hours before anesthesia ends.
2) Anesthesia: Anesthesia is performed by intraperitoneal injection of sodium pentobarbital solution into rats. (For rats with different body weights, the injection dose of sodium pentobarbital is usually 70 mg·Kg^−1.)
3) Cardiac perfusion: cardiac perfusion with normal saline is performed according to a general method.
4) Taking of brain tissues: The heads of the rats are separated from the bodies with surgical forceps and scissors, and then the muscles and membrane tissues at the top of the skulls are removed and brains are then gently peeled from the skulls. The separated brains are soaked in 4% paraformaldehyde for 24-48 hours.
5) Dehydration of brain tissues: the fixed tissues are soaked with a 20% sucrose PBS solution for more than 72 hours, and then the brain tissues are soaked with a 30% sucrose PBS solution for more than 72 hours.
6) Frozen section: the brain tissues are cut into […] thick sections by a general coronal section procedure.
7) DAB immunohistochemistry step: DNA denaturation is carried out and the sections are transferred to a 24-well plate (pH 7.4) perfused with 0.1 M PBS. The brain sections are incubated with 1% H2O2 for 30 minutes to remove […]; the sections are then treated with a 2M HCl solution for 30 minutes at room temperature to denature them. After completion of the denaturation, the brain sections are immersed in a 0.1 M sodium borate (pH 8.5) solution for 5 minutes and rinsed twice; the brain sections are incubated in 0.5% PBST for 1 hour at room temperature, and then are blocked for 1 hour with a serum blocking solution on a shaker at room temperature, and the serum blocking solution is from the same source as a secondary antibody; the samples are treated on the shaker with a BrdU primary antibody overnight at 4° C., and the BrdU primary antibody is diluted with the blocking solution; the samples are incubated with the biotinylated secondary antibody IgG for 2 hours at room temperature; a C (ABC kit) solution is incubated at room temperature for 2 hours; finally, after 3 to 5 minutes of color development by the DAB kit, the samples are mounted by using a PVP mounting medium and then dried, and finally the experimental results are detected under a microscope.
The dose-effect relationships of different compounds is further tested according to the method of Example 36, and the compounds include WS-54 (E-4-isobutyrylamino-3′,4′-methylenedioxy-stilbene), WS-69 (E-4-Methylsulfonamino-3′,4′-methylenedioxy-stilbene), WS-70 (E-4-Benzamino-3′,4′-methylenedioxy-stilbene), and WS-74 (E-4-Cyclopropylformamino-3′,4′-methylenedioxy-stilbene).

HEK293 = experiment: In vitro cytotoxicity experiment (MTT, cell survival); format: cell-based; settings: HEK293, in vitro test, FIG. 3
Method: Example 35: In Vitro Cytotoxicity Experiment the Experimental Cell Line is HEK293
Cells are cultured in a 96-well plate at a cell concentration of 5000/well. After 24 hours of cell culture, the drug treatment is performed and the experiment is carried out on two groups: the control group is added with DMSO with the same concentration as that for the experimental group; in the experimental group, each compound is tested at three doses of low, medium and high doses (100 μM; 500 μM; 1000 μM), and five parallels are tested at each dose; in the blank group, a complete medium is added with a compound to be tested with the same concentration as that for the experimental group. Constant temperature incubation is carried out for 24 h in a CO2 incubator, MTT with a final concentration of 0.5 mg/mL is then added; 4 hours later, 200 μL of DMSO solution is added, and the absorbance is measured at 490 nm. The cell survival is calculated according to the absorbance; Survival %=(Average concentration−Blank concentration)/(Average control concentration−Blank concentration)*100%.
Reference is made to FIG. 3 which illustrates an in vitro cytotoxicity test chart of a novel stilbene derivative according to an example of embodiments of the present invention.

[2] = test system: neurogenesis in rat hippocampus; experiment: BrdU and NeuN fluorescence double staining; format: in vivo
Method: Example 37: Experimental Procedure of BrdU and NeuN Fluorescence Double Staining
The samples are obtained in the same manner as an Example 34. First, the DNA denaturation is performed, and the sections are transferred to a HCl solution perfused with 2 N, and treated at 37° C. for 60 minutes to be denatured. After completion of the denaturation, the brain sections are immersed in a 0.1 M sodium borate (pH 8.5) solution for 5 minutes and rinsed twice; the brain sections are then blocked for 1 hour with a serum blocking solution on a shaker at room temperature, and the serum blocking solution is from the same source as a secondary antibody; the samples are treated on the shaker with BrdU (1:500, Millipore) and NeuN (1:500, Abcam) primary antibodies overnight at 4° C., and the primary antibodies are diluted with the blocking solution; the samples are incubated with fluorescent secondary antibodies goat anti-mouse and goat anti-rabbits at room temperature (1:50, Zhongshanjinqiao) for 2 hours at room temperature in a dark place; the samples are mounted by using a fluorescent anti-quenching PVP mounting medium and then dried, and finally the experimental results are detected under a microscope. Control group and drug group (low dose L, 2 mg/Kg; medium dose M, 4 mg/Kg).

## CC(=O)Nc1ccc(/C=C/c2ccc3c(c2)OCO3)cc1 [WS-6, E-4-acetylamino-3′,4′-methylenedioxy-stilbene]
[1]
  neurogenesis activity (in words): better neurogenesis activity
HEK293
  neuronal cytotoxicity / neurotoxicity (in words): further reduced in neurotoxicity as compared with WS-61; also recorded: greatly reduced
[2]; 4 mg/Kg over 2 mg/Kg
  dose relationship of NeuN+BrdU+ spots: can further enhance neurogenesis at the dose of 4 mg/Kg over the dose of 2 mg/Kg
[2]; low dose 2 mg/Kg and medium dose 4 mg/Kg, FIG. 9
  BrdU and NeuN double staining: neurogenesis: can promote neurogenesis

Source: patent publication US10829466B2, “Stilbene derivative and preparation method thereof” (BEIJING INSTITUTE OF TECHNOLOGY, priority 2015, dated 2020)
